Publication PMC5635289, “Differential Effects of Angelicin Analogues on NF-κB Activity and IL-8 Gene Expression in Cystic Fibrosis IB3-1 Cells” (Mediators of Inflammation, 2017)

What was measured:
IL-8 mRNA = test: RT-qPCR quantification of IL-8 mRNA in TNF-α-induced IB3-1 cells; format: cell-based, human; details: for inhibition at 10 µM / inhibition at 1 µM: Homo sapiens, IB3-1, 24 h, TNF-α-induced IB3-1 cells, RT-qPCR, na = not active at the used concentrations; for inhibition at 10 µM: 10 μM compound; for inhibition at 1 µM: 1 μM compound; for Inhibition of IL-8 expression (range given): IB3-1 cells, low concentrations (1–10 μM), concentration not specified per value
Procedure: Monolayers of 60% confluent IB3-1 cells were seeded in 6- or 12-well plates in LHC-8 medium in the presence of 5% FBS. After 24 h, pure derivatives were added, 5 h before stimulation with TNF-α 80 ng/ml (ORF Genetics, Kopavogur, Iceland), and incubated for a further 24 h. Total RNA was extracted using TRIzol Reagent (Sigma-Aldrich, St. Louis, MO) following the manufacturer's instructions. Reverse transcription (RT) was performed using Reverse Transcription System kit (Promega, Madison, WI): 1 μg of total RNA was reverse transcribed in the presence of 5 mM MgCl2, 1X reverse transcription buffer (10 mM Tris-HCl, 50 mM KCl, and 0.1% Triton X-100), 1 mM each dNTPs, 20 U recombinant Rnasin Ribonuclease Inhibitor, 15 U AMV Reverse Transcriptase, and 0.5 μg oligo(dT)15 primers in a total volume of 20 μl for 10 min at 70°C and 60 min at 42°C. The resulting cDNA was quantified by relative quantitative real-time PCR (real-time qPCR). For real-time qPCR, 1 μl of cDNA was used for each SYBR Green reaction to quantify the relative expression of IL-8. Each 25 μl of total reaction volume contained 1 μl of cDNA, 10 pmol of primers, 1 iQTM SYBR Green Supermix (Bio-Rad Laboratories Inc., Hercules, CA). Real-time PCRs were performed for a total of 40 cycles (denaturation, 95°C for 10 s; annealing, 68°C for 30 s for IL-8, 65°C for 30 s for IL-6; elongation, 72°C for 60 s) using an iCycler IQ5 (Bio-Rad Laboratories Inc., Hercules, CA). Primer sequences were as follows: IL-8 forward: 5′-GTGCAGTTTTGCCAAGGAGT-3′ and IL-8 reverse: 5′-TTATGAATTCTCAGCCCTCTTCAAAAACTTCTC-3′. The relative proportions of each amplified template were determined utilizing the threshold cycle (CT) value for each performed PCR. The DDCt method was used to compare gene expression data. Each sample was quantified in duplicate. Changes in mRNA expression level were calculated following normalization with the GAPDH calibrator gene (housekeeping gene) and expressed as fold change over untreated samples [24]. Duplicates of negative controls (no template cDNA) were also run with every experimental plate to assess specificity and indicate potential contamination.
With the aim to study the effective anti-inflammatory properties of these new psoralen derivatives, we decided to further characterize the TMA derivatives for their potential activities on the expression of IL-8 gene, known to be involved in the lung inflammatory process in CF. […] More specifically, we were first interested in identifying compounds with low antiproliferative activity, but effective in downmodulating inflammatory gene expression without achieving a full suppression of these genes. We therefore employed IB3-1 cystic fibrosis cells, incubated for 5 h with two concentrations (1 μM and 10 μM) of selected compounds, and then treated with TNF-α ([…]). In the IB3-1 cystic fibrosis cellular model, NF-κB-dependent genes, including the gene encoding for the proinflammatory protein IL-8, generally are activated following infection with P. aeruginosa or treatment with TNF-α or IL-1β [26, 28, 31]. This feature is very important in the pathophysiology of CF, since several clinical complications are caused by exacerbation of this inflammatory response. After 1 day of incubation, cellular RNA was isolated for RT-qPCR analysis. All the TMA analogues found to be active in inhibiting NF-κB/DNA interactions were analyzed for their effects on inhibition of TNF-α-induced accumulation of IL-8 mRNA.

IB3-1 cells = test: Cell proliferation assay on IB3-1 cells; format: cell-based; details: Homo sapiens, cell number/ml after 48 h of treatment
Procedure: Monolayers of 60% confluent IB3-1 cells were seeded in 24- or 12-well plates in LHC-8 medium in the presence of 5% FBS. After 24 h, TMA derivatives were added at serial dilutions and incubated for further 2-3 days. The effects of compounds (TMA derivatives) on the cell proliferation were analyzed as elsewhere described. A first analysis was performed with serial dilutions to obtain 50 μM, 200 μM, and 800 μM solutions. In order to determine IC50 values, the following concentrations were used 12.5, 25, 50, 100, 200, and 800 μM. In order to prepare the cells for counting, they were washed with PBS 1X and detached with trypsin/EDTA. Cells were suspended in physiological solution and counted with a Z2 Coulter Counter (Coulter Electronics, Hialeah, FL, USA). The cell number/ml was determined as IC50 after 2 days of culture, when untreated cells are in log phase of cell growth.
In order to obtain preliminary information on the biological properties of TMA derivatives, their effects on cell growth were examined on IB3-1 cell line, excellent biological model to study new potential anti-inflammatory molecules. The use of this cell line to study the expression of proinflammatory molecules under a variety of stimuli is well established. Monolayers of 60% confluent IB3-1 cells were seeded in 12-well plate in LHC-8 medium with 5% FBS. After 24 h, compounds were added at different concentrations and the cell number/ml was determined after further 48 h of culture.

NF-κB p50 [1] = target: T1, NF-κB p50 (Homo sapiens, UniProt P19838); test: EMSA, inhibition of NF-κB/DNA interactions; format: binding; details: for Inhibition of NF-κB/DNA complex (MIC): NF-κB p50 and 32P-labeled NF-κB oligonucleotide, MIC = minimal inhibitory concentration, 12.5 μM was the lowest concentration used
T1 construct: This assay was performed using purified NF-κB p50; purchased Promega
T1 sequence (P19838 1-433 limits assumed): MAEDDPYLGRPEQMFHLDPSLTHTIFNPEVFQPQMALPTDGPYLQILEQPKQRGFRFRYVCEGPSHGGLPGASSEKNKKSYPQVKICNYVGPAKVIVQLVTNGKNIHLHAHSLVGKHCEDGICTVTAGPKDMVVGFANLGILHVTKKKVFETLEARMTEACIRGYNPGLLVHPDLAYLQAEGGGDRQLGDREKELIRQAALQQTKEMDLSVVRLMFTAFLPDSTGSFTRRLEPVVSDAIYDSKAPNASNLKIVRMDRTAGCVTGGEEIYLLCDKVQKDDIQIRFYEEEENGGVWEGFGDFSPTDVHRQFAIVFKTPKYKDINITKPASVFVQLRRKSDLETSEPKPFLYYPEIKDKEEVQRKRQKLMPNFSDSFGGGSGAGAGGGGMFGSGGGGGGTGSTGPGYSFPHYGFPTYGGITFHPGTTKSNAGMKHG
Procedure: Electrophoretic mobility shift assays were performed using double-stranded ^32P-labeled oligonucleotides as target DNA. Binding reactions were set up as previously described in binding buffer (10% glycerol, 0.05% NP-40, 10 mM Tris-HCl pH 7.5, 50 mM NaCl, 0.5 mM DTT, and 10 mM MgCl2), in the presence of 0.1 μl/20 μl of NF-κB p50 (50 gsu) (Promega, Madison, WI, USA) and 0.25 ng of labeled oligonucleotide, in a total volume of 20 μl. After 30 min binding at room temperature, samples were electrophoresed at constant voltage (200 V for 30 min) through a low ionic strength (0.25 TBE buffer) (1 TBE/40.089 M Tris-borate, 0.002 M EDTA) on 6% polyacrylamide gels until the tracking dye (bromophenol blue) reached the bottom of a 16 cm slab. Gels were dried and exposed for autoradiography with intensifying screens at […]. In these experiments, DNA/protein complexes migrate through the gel with slower efficiency. In studies on the inhibitors of protein/DNA interactions, addition of the reagents was as follows: (i) nuclear factors, (ii) active principles, (iii) binding buffer, and (iv) labeled oligonucleotides mimicking the binding sites for TF to be modulated. The nucleotide sequence of double-stranded target DNA utilized in these experiments was 5′-CGC TGG GGA CTT TCC ACG G-3′ (sense strand, NF-κB). The synthetic oligonucleotides utilized in this study were purchased from Sigma Genosys (Sigma Genosys, Cambs, UK). To calculate the effective concentrations, three different autoradiograms obtained from different time exposures were scanned and compared to control EMSA performed without addition of angelicin analogues (two independent experiments were performed).
The effects of TMA derivatives on NF-κB- (nuclear factor-kappaB-) mediated induction of proinflammatory genes was verified first in vitro by electrophoretic mobility shift assay (EMSA) with the aim to verify and quantify the possible inhibition of NF-κB/DNA interactions. This assay was performed using purified NF-κB p50 and ^32P-labeled target NF-κB double-stranded oligonucleotide mimicking the NF-κB consensus sequence present within the IL-8 gene promoter.

NF-κB p50 [2] = target: T1, NF-κB p50; design: method as in PMID 21148790; details: previous studies; cited from earlier work

Row | Compound | Inhibition of NF-κB/DNA complex (MIC) (NF-κB p50 [1]) | Effect on NF-κB/DNA interactions at 100 μM (NF-κB p50 [1]; 100 μM compound) | inhibition at 10 µM (IL-8 mRNA) [%] | IC50 (IB3-1 cells) [µM] | inhibition at 1 µM (IL-8 mRNA) [%] | Inhibition of IL-8 expression (range given) (IL-8 mRNA) | Concentration inhibiting NF-κB/DNA interactions in EMSA (NF-κB p50 [2]) [µM]
1 | Cc1cc2c(C)cc3oc(=O)cc(C)c3c2o1 [Compound 33] | 12.5 to 25 µM |  | 67 | > 800 | 66 | 52–83% | 
2 | Cc1oc2c(c(C)cc3oc(=O)cc(C)c32)c1C [Compound 34] | <12.5 (^∗) μM |  | 47 | > 800 | 68 |  | 
3 | Cc1cc2c(C)cc(=O)oc2c2c1OCC=C2 [Compound 35] | 25 to 50 µM |  | 37 | 137 | 56 |  | 
4 | Cc1cc2oc(=O)cc(C)c2c2c1C=CCO2 [Compound 36] | 12.5 to 25 µM |  | 74 | > 800 | 77 |  | 
5 | C=CCc1c(O)c(C)cc2c(CO)cc(=O)oc12 [Compound 38] | 25 µM |  | 81 | 506 | 36 | 52–83% | 

The next lines start with results.

Row | Inhibition of NF-κB/DNA complex (MIC) (NF-κB p50 [1]) | Effect on NF-κB/DNA interactions at 100 μM (NF-κB p50 [1]; 100 μM compound) | Compound | inhibition at 10 µM (IL-8 mRNA) [%] | IC50 (IB3-1 cells) [µM] | inhibition at 1 µM (IL-8 mRNA) [%] | Inhibition of IL-8 expression (range given) (IL-8 mRNA) | Concentration inhibiting NF-κB/DNA interactions in EMSA (NF-κB p50 [2]) [µM]
6 | <12.5 (^∗) μM |  | Cc1coc2c1c1occ(C)c1c1oc(=O)cc(C)c21 [Compound 29] | 12 | > 800 |  |  | 
7 | 12.5 to 25 µM |  | Cc1cc2c(o1)c1cc(C)oc1c1c(C)cc(=O)oc21 [Compound 30] |  | > 800 | 10 |  | 
8 | <12.5 (^∗) μM |  | Cc1coc2c1c(C)cc1oc(=O)cc(C)c12 [Compound 32] | 52 | > 800 | 73 |  | 
9 | higher than 20 μM | able to suppress NF-κB/DNA interactions | Cc1cc(=O)oc2c1cc(C)c1occ(C)c12 [TMA, 4,6,4′-trimethylangelicin, reference compound] |  | 185 ± 30 |  |  | 100
